# Test results reported in patent US6472145B2, “Method and composition for modulating amyloidosis” (priority 1998, dated 2002).
# Read-outs that look alike come from different tables or passages of the source.
# Columns and labels:
# [1] = test system: APP; conditions: background; NH4Cl at high concentrations; cited from earlier work
# [2] = test system: cells expressing wild-type APP (K695 cells); conditions: previous studies; cited from earlier work
# [3] = test system: K695 cells; assay: Lysosomal function: Lysosensor Yellow/Blue DND-160 uptake; type: cell-based, Human; conditions: FCCP 5 μM and 500 nM, baf A1 1 μM, NH4Cl 20 mM, 4 hrs
# Experimental: (§1) Endosomal function was assessed by the fluorometric quantitation of the receptor-mediated uptake of both Texas Red and fluoroscein labelled transferrin (Molecular Probes, Eugene, Oreg.)(33-35). K695 cells were maintained as exposed to various treatments as mentioned with the exception that cells were plated at a density 200,000 cells/well in 24-well plates (Corning™). Twenty-four hours after plating, cells were exposed to various treatments in DMEM supplemented with sodium pyruvate (1 mM) and 10% fetal bovine serum. At the same time as drug exposures, both transferrin-Texas Red (Tf-Tx) and transferrin-fluoroscein (Tf-F) (10 μl/ml media of 5 mg/ml stocks in PBS) were added to each well and incubated for 4 hours at 37° C. Each well was then gently washed three times with warm media and uptake of fluorescent probes quantitated at 37° C. using a Cytofluor™ 2350 fluorometric plate reader (Millipore, Mississauga, ON). Quantitation of the non-pH-dependent Tf-Tx fluorescence and the pH-dependent Tf-F fluorescence was determined using excitation filters of 590 nm (bandwidth=20 nm); 485 nm (bandwidth=20 nm) and emission filters of 645 nm (bandwidth=40 nm); 530 nm (bandwidth=25 nm), respectively. Similarly, Lysosomal function was assayed by the uptake of the fluorescent probe, Lysosensor™ Yellow/Blue DND-160 (Molecular Probes, Eugene, Oreg.)(36). Assay of Lysosensor™ uptake was performed in an identical manner to that of the fluorescent labelled transferrin conjugates with the exception that the addition of 10 μl/ml media of Lysosensor™ was taken from a 1 mM stock solution in DMSO. Quantitation of the non-pH-dependent blue fluorescence and the pH-dependent yellow fluorescence was determined using an excitation filter of 360 nm (bandwidth=40 nm) and emission filters of 460 mn (bandwidth=40 nm) and 530 nm (bandwidth =25 nm), respectively. For all three probes examined, relative fluorescence was obtained from subtraction from sister wells which had not been exposed to fluorophores. […]
# [4] = test system: K695 cells; assay: Endosomal function: uptake of Tf-Tx and Tf-F labelled transferrin; type: cell-based, Human; conditions: 4 hrs; for impairment of endosomal function (decrease in Tf-Tx and Tf-F signals): baf A1 1 μM, NH4Cl 20 mM
# Experimental: as §1
# [5] = test system: K695sw cells; conditions: previous studies; cited from earlier work
# [6] = test system: K695sw cells; assay: Quantification of cellular ATP levels (luciferase/luciferin); type: cell-based, Human; conditions: various concentrations, 30 minutes or 4 hours
# Experimental: 20 μl aliqouts of ATP standards and samples were then assayed for ATP content using a luciferase/luciferin ATP determination kit (A-6608, Molecular Probes, Eugene, Oreg.). ATP-dependent luminescence was quantified using an Optocomp® II luminometer (MGM Instruments, Hamden, Conn.) and ATP levels were determined by extrapolation from a standard curve. […] As a positive control, the effect of combined treatment with various concentrations of sodium azide and 2-deoxy-D-glucose (NaA/DG) was also examined in these studies.
# [7] = test system: K695sw cells; conditions: 5 μM, 500 nM or 50 nM, 24 hours
# Experimental: Cell viability was quantified based on the exclusion of the membrane impermeant probe, YO-PRO (Molecular Probes, Eugene, Oreg.). K695sw cells were maintained and exposed to vehicle or various concentrations of FCCP as described above with the exception that cells were plated at a density of 20,000 cells/well in 96-well plates (Falcon®). Twenty-four hours after plating, cells were exposed to various treatments in DMEM supplemented with sodium pyruvate (1 mM) and 10% fetal bovine serum. At the same time as drug exposures, YO-PRO (4 μM) was added to each well and its uptake quantified every 30 minutes for 1 day at 37° C. using a Cytofluor™ 2350 fluorometric plate reader (Millipore, Mississauga, ON). As a positive control, all wells were exposed to 0.1% Triton X-100 at the end of the experiment.
# [8] = test system: cellular ATP levels; conditions: 30 μM FCCP for 2 hours; cited from earlier work
# [9] = test system: mitochondrial membrane potential; conditions: 1 μM FCCP; cited from earlier work
# [10] = test system: wild-type APP695 (K695 cells); conditions: 4 hours
# Experimental: (§2) Human embryonic kidney (HEK) 293 cells stably transfected with either wild-type APP695 (K695 cells) or APP carrying the AD-linked double “Swedish” mutation (K695sw cells)(30) were cultured in DMEM supplemented with sodium pyruvate (1 mM) and 10% fetal calf serum as previously described (31). Cells were plated at 1,000,000 cells per well in 35 mm^2 culture dishes (Corning™) 24 hours prior to drug exposure. Preceding the addition of drugs, cultures are washed once with warm PBS (37° C.) and then exposed to various treatments in DMEM supplemented with sodium pyruvate (1 mM). Cultures were then exposed to either control media, vehicle (0.05% ethanol), or varying concentrations of FCCP (5 μM, 500 nM, 50 nM). Either 30 minutes or 4 hours after the addition of drugs, the media was removed, the cultures washed once with ice-cold PBS, and then harvested in 100 μl of ice-cold lysis buffer containing 20 mM MOPS (pH 7.2), 5 mM EDTA, 0.01% NP-40, 75 mM β-glycerol phosphate, […], […], 50 mM phosphatase substrate, […], and 1 mg/ml each of leupeptin, aprotinin and pepstatin.
# (§3) To examine extracellular APP fragments, the media was retained and centrifuged at 4° C. for 10 min at 16,000 X g to remove cellular debris. Extracellular protein was then precipitated by 10% trichloroacetic acid as previously described (31). Subsequently, secreted APPsα was determined by 10% Tris-Glycine SDS-PAGE Western Blot analysis using the monoclonal antibody WO-2, generated against the first 16 amino acids of the N-terminal region of Aβ (32). Similarly, extracellular Aβ release was examined by 16% Tris-Tricine SDS-PAGE Western Blot analysis using the WO-2 antibody (32). For examination of intracellular APP fragments, cultures were harvested in ice-cold lysis buffer and then sonicated for 8 seconds on ice. Cellular protein levels were quantified using the BCA protein assay (Pierce, Rockford, Ill.) and 10 μg of cellular protein were then separated by either 10% Tris-Glycine or 16% Tris-Tricine SDS-PAGE. Intracellular C100 and total APP were quantitated, respectively, by 16% Tris-Tricine Western Blot analysis using the WO-2 antibody and 10% Tris-Glycine Western Blot analysis using an anti-APP N-terminal antibody (22C11, Boehringer Mannheim, Laval, QC). A diagram of the catabolic fragments of APP and the epitopes to which each antibody binds is depicted in FIG. 1. […] The wavy line represents the plasma membrane. The enzyme α-secretase (α-left) cleaves APP within the Aβ sequence (represented by the heavy line), resulting in release of the ectodomain fragment known as APPsα. The enzymes β and γ secretase (β, γ, right) sequentially cleave APP on either side of the Aβ sequence. β secretase cleavage results in the release of the ectodomain fragment known as APPsβ and production of the cellular fragment known as C100; following γ-secretase cleavage, extracellular Aβ is released. Probing the cellular fraction with antibody 22C11 identifies total cellular APP. Probing the cellular fraction with WO-2 identifies C100 (distinguished by molecular weight). Probing the extracellular fraction with WO-2 identifies both APPsα and Aβ (distinguished by molecular weight).
# (§4) Cellular (C100 and total APP) and extracellular (APPsα and Aβ ) APP catabolic fragments were separated using SDS PAGE with either 10% Tris-Glycine (for APPsα and total APP) or 16% Tris-Tricine (for C100 and Aβ) gels. Following electrophoretic separation, proteins were transferred to nitrocellulose membranes and probed with either the monoclonal antibody WO-2 to detect C100, APPsα and Aβ, or 22C11 to detect total cellular APP. Immunoreactive bands were visualized using ECL detection (Amersham, Oakville, ON) and analyzed by standard autoradiographic and densitometric techniques as described (31).
# [11] = test system: APP carrying the AD-linked double "Swedish" mutation (K695sw cells); conditions: for Aβ release: FCCP 5 μM, 500 nM, 50 nM
# Experimental: as §2, §3, §4
smiles,measurement,setting,value
CC[C@@]1([C@@H]2O[C@@H]([C@H]3O[C@@](O)(CO)[C@H](C)C[C@@H]3C)C[C@@H]2C)CC[C@H]([C@]2(C)CC[C@]3(C[C@H](O)[C@@H](C)[C@@H]([C@@H](C)[C@@H](OC)[C@H](C)C(=O)O)O3)O2)O1 [monensin],APP proteolytic processing / APP catabolism,[1],decrease APP proteolytic processing
"CO/C1=C\C(C)=C\[C@@H](C)[C@@H](O)[C@@H](C)C/C(C)=C/C=C/[C@H](OC)[C@@H]([C@@H](C)[C@@H](O)[C@H](C)[C@@]2(O)C[C@@H](O)[C@H](C)[C@@H](C(C)C)O2)OC1=O [baf A1, bafilomycin A1]",Aβ production,[2],lack of effect
same,APP proteolytic processing / APP catabolism,[1],alterations in APP catabolism which are both cell-type and APP mutation specific
same,lysosomal function (Lysosensor fluorescence),[3],profound reductions in lysosomal functioning
same,impairment of endosomal function (decrease in Tf-Tx and Tf-F signals),[4],approximately 50%
same,Aβ production,[5],reduced Aβ production
"N#CC(C#N)=NNc1ccc(OC(F)(F)F)cc1 [FCCP, carbonyl cyanide p-(trifluoromethoxy)phenylhydrazone]",cellular ATP levels,[6],did not alter cellular ATP levels at any of the concentrations or time points measured
same,cell death as measured by membrane exclusion (YO-PRO),[7],no increase in cell death
same,cellular ATP levels,[8],sufficient to modestly decrease cellular ATP levels
same,lysosomal function (Lysosensor fluorescence),[3],"reductions in lysosomal function, albeit not as profound"
same,endosomal functioning (Tf-Tx and Tf-F signals),[4]; FCCP 5 μM and 500 nM,did not significantly alter endosomal functioning
same,mitochondrial membrane potential,[9],sufficient to alter mitochondrial membrane potential
same,APPsα production,[10],marked concentration-dependent decrease in APPsα production
same,Aβ production,[10],clearly inhibited Aβ production in a concentration-dependent manner
same,maturation of APP,[10],unaffected
same,total levels of cellular APP,[10],unaffected
same,production of the ectodomain fragment APPsα (APPsα release),[11]; 30 min and 4 hours,only affected by 4 hour exposure to 5 μM FCCP
same,formation of the C100 fragment (cellular C100),[11]; 4 hours,concentration-dependent decrease in the formation of the C100 fragment
same,maturation of APP via N'/O' linked glycosylation,[11]; 4 hours,neither total cellular levels of APP nor the maturation of APP via N′/O′ linked glycosylation were affected
same,total cellular levels of APP,[11]; 4 hours,neither total cellular levels of APP nor the maturation of APP via N′/O′ linked glycosylation were affected
same,Aβ release,[11]; 30 min,concentration-dependent decrease in Aβ release
same,Aβ release,[11]; 4 hours,decreases in Aβ release were even more pronounced
"Cl.N [NH4Cl, ammonium chloride]",APP proteolytic processing / APP catabolism,[1],decrease APP proteolytic processing
same,lysosomal function (Lysosensor fluorescence),[3],profound reductions in lysosomal functioning
same,impairment of endosomal function (decrease in Tf-Tx and Tf-F signals),[4],approximately 50%
